In patent publication US11286233B2, “Stilbene derivatives for the treatment of CNS and other disorders” (AMBIENT PHOTONICS, INC., priority 2017, dated 2022):
Each block holds one compound with its values, some of them ahead of it.

Columns and labels:
Aβ1-42:Zn = molecular target: T1, Aβ1-42:Zn (Homo sapiens, UniProt P05067); assay: Fluorescence-based (bis-ANS) assay of Aβ1-42:Zn disaggregation; assay type: biochemical; conditions: Aβ1-42 15 μM, bis-ANS 15 μM, Zn 15 μM; Tris-HCl pH7.4, 26° C.; test compounds 0.227-60 μM added after plateau, read over 20 minutes; concentration reducing fluorescence by 50 percent
T1 construct: Human peptides Aβ1-42 and Amylin 8-37 were purchased; purchased China Peptide
Method: Human peptides Aβ1-42 and Amylin 8-37 were purchased from China Peptide and stored at −80° C. […] The device was configured to maintain 26° C., measure an excitation of 390 nm, emission of 490 nm and cutoff 475 nm with the PMT+set at Medium, 6 flashes/read at 40 second intervals with shaking 5 seconds before the first read and 3 seconds between reads. Experiments were conducted at 26° C. in a Tris-HCl buffer (50 mM, pH7.4) containing NaCl (150 mM). Aβ1-42 was solubilized in DMSO to a concentration of 1.5 mM for 5 minutes then briefly centrifuged to remove any aggregates. The soluble Aβ1-42 (15 μM) was immediately mixed ±bis-ANS (15 μM) and allowed to equilibrate for 5 minutes. Aβ aggregation was induced with the addition of ±Zn (15 μM) in H2O. […] Test compounds (0.227-60 μM in DMSO) were then added and the dose response was measured over a 20-minute period. EDTA, known to chelate Zn, was used as a positive control. Raw fluorescence was normalized to background fluorescence without Aβ and expressed as a percentage of that in control samples without Zn. All quantitative data was expressed as mean±SEM from at least 3 replicates. All statistical analysis was conducted with Prism 6 (GraphPad).

Amylin 8-37 = molecular target: T2, Amylin 8-37 (Homo sapiens, UniProt P10997); assay: Fluorescence-based (bis-ANS) assay of Amylin disaggregation; assay type: biochemical; conditions: Amylin 8-37 15 μM, bis-ANS 15 μM; Tris-HCl pH7.4, 26° C.; aggregation 24 hours, test compounds 0.227-60 μM, read over 24 hour period; concentration reducing fluorescence by 50 percent
T2 construct: Amylin 8-37 peptide was solubilized in DMSO; purchased China Peptide
T2 sequence (P10997 41-70): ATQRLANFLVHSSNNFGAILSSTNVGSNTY
Method: Human peptides Aβ1-42 and Amylin 8-37 were purchased from China Peptide and stored at −80° C. Zinc sulfate heptahydrate (ZnSO4.7H2O), BisANS (4,4′-Dianilino-1,1′-binaphthyl-5,5′-disulfonic acid dipotassium salt), Epigallocatechin-3-gallate (EGCG), 9-(Dicyanovinyl)julolidine (DCVJ) and Clioquinol (CQ) were purchased from Sigma Aldrich. Ethylenediaminetetraacetic acid (EDTA) was purchased from Alfa Aesar. 2-(dimethylamino)methyl-5,7-dichloro-8-hydroxyquinoline (AC-068), structurally similar to PBT-2 was synthesized by Warner Babcock Institute for Green Chemistry, LLC.
Amylin disaggregation was assessed using a Spectramax M5 multi-mode microplate reader (Molecular Devices) using untreated black with clear bottom 96 well plates (Costar #3631). The device was configured to maintain 26° C., measure an excitation of 390 nm, emission of 490 nm and cutoff 475 nm with the PMT+set at Medium, 6 flashes/read at 5-minute intervals with shaking 5 seconds before the first read and 3 seconds between reads.
Experiments were conducted at 26° C. in a Tris-HCl buffer (50 mM, pH7.4) containing NaCl (150 mM). Amylin 8-37 peptide was solubilized in DMSO to a concentration of 1.5 mM for 5 minutes then briefly centrifuged to remove any aggregates. The soluble amylin peptide (15 μM) was immediately mixed ±bis-ANS (15 μM) and the plate sealed to prevent evaporation. Aggregation was measured by an increase in fluorescence over 24 hours. Test compounds (0.227-60 μM in DMSO) were then added and the dose response was measured over a 24 hour period. EGCG was used as a positive control. Raw fluorescence was normalized to background fluorescence without Amylin and expressed as a percentage of that in control samples. All quantitative data was expressed as mean±SEM from at least 3 replicates. All statistical analysis was conducted with Prism 6 (GraphPad). Nonlinear regression was used to calculate the concentration at which fluorescence was reduced by 50 percent (EC50), as shown in Table 2.

T1 sequence (P05067 672-713): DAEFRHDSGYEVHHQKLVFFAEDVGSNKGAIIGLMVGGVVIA

Compound: O=C(O)CN(CCN(CC(=O)O)CC(=O)O)CC(=O)O [EDTA, Ethylenediaminetetraacetic acid, reference compound]
EC50 (Aβ1-42:Zn): 46100 nM

Compound: N#CC(C#N)=Cc1cc2c3c(c1)CCCN3CCC2 [DCVJ, 9-(Dicyanovinyl)julolidine, reference compound]
EC50 (Aβ1-42:Zn): 533 nM

Compound: Epigallocatechin-3-gallate [EGCG, reference compound]
EC50 (Amylin 8-37): 857 nM

Compound: CN(C)Cc1ccc2c(Cl)cc(Cl)c(O)c2n1 [AC-068(PBT2), 2-(dimethylamino)methyl-5,7-dichloro-8-hydroxyquinoline, reference compound]
EC50 (Aβ1-42:Zn): 2210 nM

Compound: Oc1c(I)cc(Cl)c2cccnc12 [CQ, Clioquinol, reference compound]
EC50 (Aβ1-42:Zn): 2690 nM
EC50 (Amylin 8-37): 4070 nM

Next, values leading:

EC50 (Aβ1-42:Zn): 31000 nM
EC50 (Amylin 8-37): 1260 nM
Compound: COc1cc(/C=C/c2ccc(N(c3ccc(C(C)(C)C)cc3)c3ccc(C(C)(C)C)cc3)cc2)c(OC)cc1C=C(C#N)C(=O)O (stereo in doubt) [PC-063, (Z)-3-[4-[(E)-2-[4-(4-tert-butyl-N-(4-tert-butylphenyl)anilino)phenyl]vinyl]-2,5-dimethoxy-phenyl]-2-cyano-prop-2-enoic Acid]

EC50 (Aβ1-42:Zn): 747 nM
EC50 (Amylin 8-37): 24 nM
Compound: N#CC(=Cc1ccc(/C=C/c2ccc(N(c3ccccc3)c3ccccc3)cc2)cc1)C(=O)O (stereo in doubt) [PC-064, (Z)-2-cyano-3-[4-[(E)-2-[4-(N-phenylanilino)phenyl]vinyl]phenyl]prop-2-enoic Acid]

EC50 (Aβ1-42:Zn): 2850 nM
Compound: N#C/C(=C/c1ccc(/C=C/c2ccc(N(c3ccccc3)c3ccccc3)cc2)cc1OCCCCCCCCCC(=O)O)C(=O)O [PC-192]

EC50 (Aβ1-42:Zn): 1610 nM
Compound: N#C/C(=C/c1ccc(/C=C/c2ccc(N(c3ccccc3)c3ccccc3)cc2)cc1OCCCCCCCC(=O)O)C(=O)O [PC-191]

EC50 (Aβ1-42:Zn): 338 nM
EC50 (Amylin 8-37): 207 nM
Compound: N#C/C(=C/c1ccc(-c2ccc(N(c3ccccc3)c3ccccc3)cc2)o1)C(=O)O [PC-081, (Z)-2-cyano-3-[5-[4-(N-phenylanilino)phenyl]-2-furyl]prop-2-enoic Acid]

EC50 (Aβ1-42:Zn): 49700 nM
EC50 (Amylin 8-37): 3740 nM
Compound: CC(C)(C)c1ccc(N(c2ccc(/C=C/c3ccc4cc(C#N)c(=O)[nH]c4c3)cc2)c2ccc(C(C)(C)C)cc2)cc1 [PC-174, 7-[(E)-2-[4-(4-tert-butyl-N-(4-tert-butylphenyl)anilino)phenyl]vinyl]-2-oxo-1H-quinoline-3-carbonitrile]

EC50 (Aβ1-42:Zn): 649 nM
Compound: N#C/C(=C/c1ccc(/C=C/c2ccc(N(c3ccccc3)c3ccccc3)cc2)cc1OCC(=O)O)C(=O)O [PC-190, (Z)-3-[2-(carboxymethoxy)-4-[(E)-2-[4-(N-phenylanilino)phenyl]vinyl]phenyl]-2-cyano-prop-2-enoic Acid]

EC50 (Amylin 8-37): 1190 nM
Compound: COc1cc(/C=C(\C#N)C(=O)O)c(OC)cc1/C=C/c1ccc(-n2c3ccc(C(C)(C)C)cc3c3cc(C(C)(C)C)ccc32)cc1 [PC-066, (E)-2-cyano-3-[4-[(E)-2-[4-(3,6-ditert-butylcarbazol-9-yl)phenyl]vinyl]-2,5-dimethoxy-phenyl]prop-2-enoic Acid]
